{"source": "patent US20170304466A1", "about": "“AAV-Based Gene Therapy” (Arthrogen B.V., priority 2014, published 2017)", "key": {"mice with CIA [1]": {"system": "mice with CIA", "format": "in vivo", "protocol": "In brief, the plasmid encodes the Fluc gene under the control of the CMV promoter and a human growth hormone polyadenylation signal. The transgene cassette is flanked by AAV-2 inverted terminal repeats and is packaged in capsid from AAV5.[Gao G P et al; PNAS 2002; 11854] The genome containing vector and empty AAV capsid particles were purified by combined chromatography and cesium chloride density gradient centrifugation. […] Vector titers were determined by qPCR and expressed as vector genomes/ml (vg/ml).\nIntra-articular rAAV5 expression was investigated in male DBA mice (8-12 week old; Harlan Sprague Dawley, Horst, The Netherlands) in 5 animal experiments. Mice were injected with rAAV5.CMV.Fluc in both knee joints (with or without injection of ankle joints) and monitored periodically for luciferase expression (from 5 days up till 6 months). For animals without arthritis the vector was administered on day 1, in arthritic animals the vector was injected on day 17 or 24 after immunization, at the onset of disease. Animals received between 1.26e10 and 1.5e10 vg per knee joint (in a volume of 5 μl) and 0.75e10 vg per ankle joint (in a volume of 2.5 μl). Empty capsids were co-administered with the genome containing particles in several groups in a 5:1 or 20:1 ratio (ratio expressed as empty capsids to genome containing vectors). Groups consisted of 5 to 18 animals.\nTwo days prior to vector administration, triamcinolone was administered intra-muscularly (i.m.), similar to the use in RA patients. […] Taking into account the faster metabolic rate in mice (factor 12.5), a dose of 5 mg/kg bodyweight was used, administered in a volume of 50 μl. Control groups received an i.m. injection with 50 μl NaCl. […]\n(§1) Luciferase expression was measured at different time points after vector administration, from day 3 up till 6 months in different experiments. […] Image processing and signal intensity quantification and analysis were performed using M3 Vision (Biospace Lab). […] The number of photons emitted per second per square centimetre per steradian was calculated as a measure of luciferase activity.\nLuminescence over time was investigated using generalized estimating equations (GEE) to allow for longitudinal analysis (including all available longitudinal data and allowing unequal numbers of repeated measurements) (Twisk (2004) Eur. J. Epidemiol. 19(8):769-776). All other statistics were analyzed using Graphpad Prism (Ja Jolla, Calif., USA). […]"}, "mice with CIA [2]": {"system": "mice with CIA", "test": "Arthritis activity clinical score in CIA mice", "format": "in vivo", "experimental": "Collagen induced arthritis (CIA) was induced by means of an intradermal injection of 100 μl collagen type II (2 mg/ml), diluted 1:1 in CFA (mineral oil and heat-killed M. Tuberculosis 2 mg/ml) (Chondrex Inc., Redmond, Wash., USA). On day 21 a booster injection was administered intraperitoneally containing 100 μg collagen type II dissolved in 100 μl NaCl.\nArthritis activity was scored 3-weekly from day 18 on with a semi-quantitative scoring system, each mouse paw was analyzed separately (0—normal; 1—swelling and/or erythema of 1 joint; 2—swelling in multiple joints; 3—swelling of all joints; 4—swelling of whole paw and at least one of the following symptoms: ankylosis, loss of function)."}, "[3]": {"system": "macrophages (F4/80+, CD68+)", "test": "FLOW cytometry of macrophages in spleen and synovium of arthritic mice", "format": "in vivo", "conditions": "48 hrs after triamcinolone 5 mg/kg i.m.", "experimental": "Macrophages in spleen and synovium were analyzed by FLOW cytometry. Briefly, synovial cells were extracted by scraping cells from the joint followed by digestion with Liberase/DNase for 30 min at 37° C. Cells were then washed (PBS/EDTA) and passed through a cell strainer. Synovial cells were centrifuged (1400 rpm, 5 min, 4° C.) and resuspended in FACS buffer (PBS+1% BSA). Due to the low number of cells in the synovium, all animals from each group were pooled. Spleen cells were isolated by mechanical disruption and flushing cells through a cell strainer. Red blood cells were lysed by addition of RBC lysis buffer (Life Technologies), followed by 10 min incubation on ice. Cells were centrifuged and resuspended in FACS buffer. Cells (pooled synovium or splenocytes (1e6 cells) were blocked with 5% normal mouse serum (Sanquin) and stained with F4/80-APC and CD68-FITC labeled antibodies (BD Biosciences). Data was acquired on a BD Canto2 and was analyzed using FlowJo software (FLOWJO LLC, Ashland Oreg.)\nTo further investigate the mechanism of action behind the effect of triamcinolone on transgene expression, an ex vivo analysis was carried out on synovial tissue and splenocytes to assess the effect on the numbers and activity of macrophages and other cell types. […]"}, "spleen": {"system": "spleen", "test": "Spleen size after triamcinolone in arthritic mice", "format": "in vivo", "experimental": "FIG. 5: Effect of triamcinolone on spleen size and cell populations in different tissues. Arthritis was induced in several groups (n=5 per group), triamcinolone (5 mg/kg) or saline as control was administered intramuscularly on day 22 (2 days before vector administration). […]\nImmunization, intra-articular injections and in vivo imaging were performed under isoflurane anaesthesia (3% isoflurane and oxygen). At the end of the experiments, animals were sacrificed by cardiac puncture under isoflurane anaesthesia, followed by cervical dislocation, after which hind paws, blood, lymph nodes and spleen were collected. The studies were reviewed and approved by the animal care and use committee of the University of Amsterdam (Amsterdam, The Netherlands; Permit Numbers: ART 102881, ART 102656, ART 102793, ART 102948, and ART 103021) and carried out in strict accordance with the recommendations in the Dutch Law on Animal Welfare (Wet op Dierproeven). Animals were maintained under pathogen-free conditions in the animal facility of the University of Amsterdam."}, "healthy mice [4]": {"system": "healthy mice", "test": "Intra-articular rAAV5 luciferase expression, in vivo imaging in healthy mice", "conditions": "AAV5-CMV-Fluc 1.26e10 vg/joint, compared with vector alone, up to week 8", "protocol": "(§2) In brief, the plasmid encodes the Fluc gene under the control of the CMV promoter and a human growth hormone polyadenylation signal. […] The genome containing vector and empty AAV capsid particles were purified by combined chromatography and cesium chloride density gradient centrifugation. […] Vector titers were determined by qPCR and expressed as vector genomes/ml (vg/ml).\nIntra-articular rAAV5 expression was investigated in male DBA mice (8-12 week old; Harlan Sprague Dawley, Horst, The Netherlands) in 5 animal experiments. Mice were injected with rAAV5.CMV.Fluc in both knee joints (with or without injection of ankle joints) and monitored periodically for luciferase expression (from 5 days up till 6 months). […] Empty capsids were co-administered with the genome containing particles in several groups in a 5:1 or 20:1 ratio (ratio expressed as empty capsids to genome containing vectors). […]\nas §1"}, "air pouch membrane": {"system": "air pouch membrane", "test": "Luciferase expression in air pouch synovial inflammation (APSI) model", "format": "in vivo, mice", "conditions": "triamcinolone 5 mg/kg i.m. on d9, vector 3.16e11 vg on d11; assay d30", "experimental": "Air pouches were formed as previously described (O'Boyle et al. (2009) FASEB J. 23 (11): 3906-3916). Briefly, 3 mls of air was injected subcutaneously into the back of each animal. The air pouches were kept inflated by re-injection of air as necessary. rAAV5.CMV.Fluc vector (3.16e11 vg) was administered into the pouch in a volume of 1 ml on d0, d11, or d18 post air pouch formation. For triamcinolone treated animals, triamcinolone was administered (5 mg/kg) by i.m. injection 2 days prior to vector administration on d11. On d30, mice were sacrificed and air pouch membrane was removed and snap frozen. Frozen air pouch tissue was homogenized in passive lysis buffer (Promega) and luciferase was measured by standard luciferase assay (Promega).\nThe air pouch synovial inflammation (APSI) model was initially developed as a way to model human synovium in a mouse. It involves the injection of air under the skin on the back of a mouse. After 6-7 days, a lining membrane will form around this air pouch. This lining is very similar to the synovial lining that forms around the joint cavity, consisting primarily of fibroblast like cells and macrophages. […] We hypothesized that perhaps the macrophages lining the air pouch membrane were inhibiting the transduction of the vector (similar to what we have observed in intra-articular injected vector). […]"}, "healthy mice [5]": {"system": "healthy mice", "test": "Intra-articular rAAV2 luciferase expression, in vivo imaging in healthy mice", "conditions": "AAV2-CMV-Fluc 1.26e10 vg/joint, compared with vector alone, up to week 4", "protocol": "as §2\nLuciferase expression was measured at different time points after vector administration, from day 3 up till 6 months in different experiments. D-luciferin potassium-salt substrate (Caliper Life Sciences, Hopkinton, Mass., USA) was injected intraperitoneally (150 mg/kg of body weight, in a volume of approximately 200 μl). Photon counts were acquired 10 minutes after substrate administration for 5 minutes using a cooled charge-coupled device (CCD) camera system (Photon Imager, Biospace Lab, Paris, France). […] Image processing and signal intensity quantification and analysis were performed using M3 Vision (Biospace Lab). […] The number of photons emitted per second per square centimetre per steradian was calculated as a measure of luciferase activity.\nTo test this hypothesis, we performed an experiment were we evaluated if triamcinolone and empty capsid could enhance gene expression from a serotype that is very different from AAV5, that being AAV2. […] Luciferase expression was monitored by live animal IVIS imaging."}}, "note": "Read-outs that look alike come from different tables or passages of the source.", "data": [{"compound": "C[C@]12C=CC(=O)C=C1CC[C@H]1[C@@H]3C[C@@H](O)[C@](O)(C(=O)CO)[C@@]3(C)C[C@H](O)[C@@]12F", "note": "[triamcinolone]", "values": [{"measurement": "rAAV5.CMV.Fluc expression (luminescence)", "setting": "mice with CIA [1]; agent given 48 hours before i.a. vector (triamcinolone 5 mg/kg i.m.; liposomal clodronate 5 μl/g i.v.), over 4 weeks", "value": "improved rAAV5.CMV.Fluc expression"}, {"measurement": "luciferase expression (generalized estimating equations), compound added separately", "setting": "mice with CIA [1]; followed 6 months", "value": "trend towards increased expression (not significant)"}, {"measurement": "gene expression (luciferase)", "setting": "mice with CIA [1]; triamcinolone 5 mg/kg locally (i.a.) 2 days prior to i.a. vector + empty capsids 5:1", "value": "enhancement of gene expression"}, {"measurement": "gene expression (luciferase)", "setting": "mice with CIA [1]; triamcinolone 5 mg/kg systemically (i.m.) 2 days prior to i.a. vector + empty capsids 5:1", "value": "enhancement of gene expression"}, {"measurement": "arthritis activity (clinical score)", "setting": "mice with CIA [2]; Example 2, up to 4 weeks", "value": "trend towards reduced arthritis activity"}, {"measurement": "arthritis activity (clinical score)", "setting": "mice with CIA [2]; Example 3, up till week 4", "value": "arthritis activity was lower"}, {"measurement": "relative percentage of macrophages (CD68+, F4-80+) in the spleen", "setting": "[3]; compared with saline", "value": "remained similar"}, {"measurement": "percentage of macrophages in the synovium", "setting": "[3]; pooled animals per group", "value": "decreased"}, {"measurement": "spleen weight", "setting": "spleen; 3 days after triamcinolone/saline administration", "value": "significantly reduced"}, {"measurement": "decrease of absolute volume of spleen", "setting": "spleen; after triamcinolone 5 mg/kg i.m., at d25, p=0.0011", "value": 4, "unit": "fold"}, {"measurement": "intra-articular AAV5 gene expression (luciferase, IVIS)", "setting": "healthy mice [4]", "value": "increased gene expression"}, {"measurement": "luciferase expression in air pouch membrane", "setting": "air pouch membrane", "value": "luciferase expression was only observed"}, {"measurement": "intra-articular AAV2 gene expression (luciferase, IVIS)", "setting": "healthy mice [5]", "value": "increased gene expression"}]}]}
